Test results taken from the supplement of paper PMC4862054.

Experiments:
Experiment in all cases: normalised viability (% of control), CellTiter-Blue; higher = more viable cells (about 100 = DMSO control)
Settings in all cases: incubation time: 72 h
CAL-148 = system: CAL-148
Procedure, shortened: (§1)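 The reported figure is normalised viability at a single listed concentration of the series. Breast cancer cell lines (20 µl suspension) went onto 384-well plates holding compound in 5 µl medium for 72 h. CellTiter-Blue (2.5 µl, 2 h, 37 °C) was read by fluorescence at 560/590 nm, and each plate was scaled to vehicle at 100 and a positive kill control at 0.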

CAL-85-1 = system: CAL-85-1
Procedure, shortened: as §1

MFM-223 = system: MFM-223
Procedure, shortened: as §1

MDA-MB-436 = system: MDA-MB-436
Procedure, shortened: as §1

MDA-MB-468 = system: MDA-MB-468
Procedure, shortened: as §1

HCC1143 = system: HCC1143
Procedure, shortened: as §1

BT-474 = system: BT-474
Procedure, shortened: as §1

HDQ-P1 = system: HDQ-P1
Procedure, shortened: as §1

SK-BR-3 = system: SK-BR-3
Procedure, shortened: as §1

CAL-51 = system: CAL-51
Procedure, shortened: as §1

HCC1937 = system: HCC1937
Procedure, shortened: as §1

MDA-MB-231 = system: MDA-MB-231
Procedure, shortened: as §1

DU-4475 = system: DU-4475
Procedure, shortened: as §1

CAL-120 = system: CAL-120
Procedure, shortened: as §1

BT-549 = system: BT-549
Procedure, shortened: as §1

Hs578T = system: Hs578T
Procedure, shortened: as §1

Nc1nc(Cl)nc2c1ncn2[C@@H]1O[C@H](CO)[C@@H](O)[C@@H]1F [Clofarabine]
normalised viability [%]
Settings	3 nM	10 nM	30 nM	100 nM	1000 nM	10000 nM
BT-474	–	106	–	–	101	102
BT-549	–	87.5	–	–	50.6	42.3
CAL-51	109	–	102	108	–	–
CAL-85-1	95.8	–	90.4	82.6	–	–
CAL-120	–	89.1	–	–	47.7	50.4
CAL-148	82.6	–	87.8	83.3	–	–
DU-4475	90.6	–	92.8	94.4	–	–
HCC1143	–	74.5	–	–	52.4	45
HCC1937	–	92.6	–	–	28.9	26.9
HDQ-P1	105	–	106	88.9	–	–
Hs578T	–	98.1	–	–	67.3	61.5
MDA-MB-231	–	89.1	–	–	64.4	57.8
MDA-MB-436	–	109	–	–	47.6	56
MDA-MB-468	–	98.5	–	–	39.5	20.5
MFM-223	–	92.6	–	–	85.3	86.2
SK-BR-3	–	93	–	–	41.9	35.6

CC(C)C(=O)Nc1ccc([N+](=O)[O-])c(C(F)(F)F)c1 [Flutamide]
normalised viability [%]
Settings	3 nM	10 nM	30 nM	100 nM	1000 nM	10000 nM
BT-474	–	117	–	–	115	116
BT-549	–	89.7	–	–	84.3	90
CAL-51	118	–	108	106	–	–
CAL-85-1	101	–	91.8	101	–	–
CAL-120	–	96.7	–	–	95.6	96.8
CAL-148	95.5	–	99.9	103	–	–
DU-4475	111	–	85.1	97.2	–	–
HCC1143	–	82	–	–	86.3	82.5
HCC1937	–	96.9	–	–	84.2	97
HDQ-P1	109	–	105	109	–	–
Hs578T	–	96.4	–	–	109	96.7
MDA-MB-231	–	93.7	–	–	99.5	102
MDA-MB-436	–	91.5	–	–	95.4	91.6
MDA-MB-468	–	97.6	–	–	103	111
MFM-223	–	89.4	–	–	84.8	109
SK-BR-3	–	108	–	–	106	106

NC(=O)c1cccc2cn(-c3ccc([C@@H]4CCCNC4)cc3)nc12 [MK-4827]
normalised viability [%]
Settings	3 nM	10 nM	30 nM	100 nM	1000 nM	10000 nM
BT-474	–	119	–	–	100	92.7
BT-549	–	79.1	–	–	93.3	72.4
CAL-51	112	–	105	104	–	–
CAL-85-1	95.8	–	92	93.1	–	–
CAL-120	–	81	–	–	76.9	71.1
CAL-148	97.7	–	98.2	95.8	–	–
DU-4475	94.8	–	81.1	85.5	–	–
HCC1143	–	88.9	–	–	85	64.6
HCC1937	–	55.2	–	–	70.5	38.3
HDQ-P1	95.3	–	94.1	95.6	–	–
Hs578T	–	96.2	–	–	93.7	80.7
MDA-MB-231	–	94	–	–	90.7	62.2
MDA-MB-436	–	84.2	–	–	72.4	65.3
MDA-MB-468	–	101	–	–	89	50.4
MFM-223	–	92.4	–	–	96.4	111
SK-BR-3	–	95.9	–	–	95.2	74.9

O=C(c1cc(Cc2n[nH]c(=O)c3ccccc23)ccc1F)N1CCN(C(=O)C2CC2)CC1 [Olaparib]
normalised viability [%]
Settings	3 nM	10 nM	30 nM	100 nM	1000 nM	10000 nM
BT-474	–	109	–	–	104	98.2
BT-549	–	95	–	–	90.8	84.9
CAL-51	107	–	98.5	97.7	–	–
CAL-85-1	87.7	–	74	90.5	–	–
CAL-120	–	78.7	–	–	80.5	68.6
CAL-148	76.5	–	87.8	83.3	–	–
DU-4475	95.6	–	89.2	91.6	–	–
HCC1143	–	81.6	–	–	92.9	80.2
HCC1937	–	78.5	–	–	58.4	51.2
HDQ-P1	95.6	–	102	103	–	–
Hs578T	–	110	–	–	109	75.7
MDA-MB-231	–	89.7	–	–	88	72.2
MDA-MB-436	–	113	–	–	105	95.6
MDA-MB-468	–	102	–	–	89.8	65.8
MFM-223	–	98.3	–	–	98.8	114
SK-BR-3	–	103	–	–	93.5	82.1

Cc1cc2c(F)c(Oc3ncnn4cc(OC[C@@H](C)O)c(C)c34)ccc2[nH]1 [Brivanib]
normalised viability [%]
Settings	0.3 nM	1 nM	3 nM	10 nM	100 nM	1000 nM
BT-474	–	112	–	–	117	94.5
BT-549	–	107	–	–	90.6	109
CAL-51	96.7	–	96.8	95.7	–	–
CAL-85-1	88.4	–	86.2	89.1	–	–
CAL-120	–	89.3	–	–	82.5	93.2
CAL-148	92.7	–	90.8	93.1	–	–
DU-4475	102	–	93.6	93.4	–	–
HCC1143	–	85.2	–	–	83.3	84.3
HCC1937	–	87.8	–	–	104	97.6
HDQ-P1	94.9	–	115	96.3	–	–
Hs578T	–	98.1	–	–	109	95.7
MDA-MB-231	–	113	–	–	89.2	99.2
MDA-MB-436	–	113	–	–	93	96.4
MDA-MB-468	–	93.7	–	–	111	112
MFM-223	–	95.5	–	–	92.8	97.8
SK-BR-3	–	98.8	–	–	112	113

CC(C)C[C@H](NC(=O)[C@H](CCc1ccccc1)NC(=O)CN1CCOCC1)C(=O)N[C@@H](Cc1ccccc1)C(=O)N[C@@H](CC(C)C)C(=O)[C@@]1(C)CO1 [Carfilzomib]
normalised viability [%]
Settings	0.3 nM	1 nM	3 nM	10 nM	100 nM	1000 nM
BT-474	–	107	–	–	21.8	13.9
BT-549	–	90	–	–	6.79	5.9
CAL-51	111	–	102	81.4	–	–
CAL-85-1	107	–	86	72.1	–	–
CAL-120	–	100	–	–	4.54	2.9
CAL-148	101	–	97.8	94.5	–	–
DU-4475	100	–	88.3	64.4	–	–
HCC1143	–	91.9	–	–	23.9	14.9
HCC1937	–	74	–	–	5.98	11
HDQ-P1	105	–	98.9	56.7	–	–
Hs578T	–	126	–	–	1.45	1.15
MDA-MB-231	–	105	–	–	2.47	7.05
MDA-MB-436	–	96.8	–	–	6.97	10.9
MDA-MB-468	–	117	–	–	3.17	2.35
MFM-223	–	83.4	–	–	13	14.4
SK-BR-3	–	97.8	–	–	16.7	12.6

CO[C@H]1C[C@@H]2CC[C@@H](C)[C@@](O)(O2)C(=O)C(=O)N2CCCC[C@H]2C(=O)O[C@H]([C@H](C)C[C@@H]2CC[C@@H](O)[C@H](OC)C2)CC(=O)[C@H](C)/C=C(\C)[C@@H](O)[C@@H](OC)C(=O)[C@H](C)C[C@H](C)/C=C/C=C/C=C/1C [Sirolimus]
normalised viability [%]
Settings	0.3 nM	1 nM	3 nM	10 nM	100 nM	1000 nM
BT-474	–	74.7	–	–	75.1	67.5
BT-549	–	55.6	–	–	57.5	45.2
CAL-51	80	–	45.8	34.5	–	–
CAL-85-1	86.1	–	58.2	66	–	–
CAL-120	–	79.6	–	–	53.4	47.3
CAL-148	96.1	–	53.9	53.3	–	–
DU-4475	99.1	–	61.4	65.8	–	–
HCC1143	–	90.3	–	–	71.6	71.4
HCC1937	–	58	–	–	46.3	59
HDQ-P1	88.9	–	66.3	71.3	–	–
Hs578T	–	65.5	–	–	53.1	51.8
MDA-MB-231	–	74	–	–	62.8	87
MDA-MB-436	–	93.3	–	–	84.5	87.2
MDA-MB-468	–	70.2	–	–	65.3	69.5
MFM-223	–	56.2	–	–	47.5	47.1
SK-BR-3	–	84.8	–	–	48.4	43

O=C(O)CC[C@H]1CC[C@@](c2cc(F)ccc2F)(S(=O)(=O)c2ccc(Cl)cc2)CC1 [MK-0752]
normalised viability [%]
Settings	0.3 nM	1 nM	3 nM	10 nM	100 nM	1000 nM
BT-474	–	121	–	–	128	134
BT-549	–	93.4	–	–	80.3	99.1
CAL-51	106	–	101	98.8	–	–
CAL-85-1	98.7	–	82.4	103	–	–
CAL-120	–	90.2	–	–	97.2	95.7
CAL-148	99.1	–	109	111	–	–
DU-4475	115	–	91.5	101	–	–
HCC1143	–	81.5	–	–	108	89.4
HCC1937	–	96	–	–	86.9	92.1
HDQ-P1	122	–	96.5	115	–	–
Hs578T	–	137	–	–	103	113
MDA-MB-231	–	97.7	–	–	92.5	89.7
MDA-MB-436	–	109	–	–	92.2	111
MDA-MB-468	–	98.9	–	–	94.9	110
MFM-223	–	103	–	–	94.3	97.9
SK-BR-3	–	106	–	–	105	111

Cn1nnc2c(C(N)=O)ncn2c1=O [Temozolomide]
normalised viability [%]
Settings	3 nM	10 nM	30 nM	100 nM	1000 nM	10000 nM
BT-474	–	94.7	–	–	100	87.5
BT-549	–	105	–	–	91.6	74.7
CAL-51	91.1	–	96.3	91.4	–	–
CAL-85-1	102	–	98.2	107	–	–
CAL-120	–	101	–	–	104	100
CAL-148	94	–	88.8	93	–	–
DU-4475	108	–	95.3	113	–	–
HCC1143	–	90.5	–	–	95.9	102
HCC1937	–	88.3	–	–	105	116
HDQ-P1	95.6	–	88.5	27.3	–	–
Hs578T	–	104	–	–	92.7	85.1
MDA-MB-231	–	101	–	–	88	91
MDA-MB-436	–	102	–	–	91.3	101
MDA-MB-468	–	92.3	–	–	89.5	99.1
MFM-223	–	98.4	–	–	96.7	103
SK-BR-3	–	95.1	–	–	99.8	113
